Literature values in PubChem BioAssay AID1259410 (Chemical Carcinogenesis Research Information System (CCRIS), 2018).

Tested on: rodent tumor promotion studies, tumor incidence
Assay: CCRIS tumor promotion studies
Excerpt: The CCRIS database contains chemical records with carcinogenicity, mutagenicity, tumor promotion, and tumor inhibition test results. It was developed by the National Cancer Institute (NCI). Data are derived from studies cited in primary journals, current awareness tools, NCI reports, and other sources. Test results have been reviewed by experts in carcinogenesis and mutagenesis.
CCRIS provides historical information from the years 1985 - 2011. It is no longer updated.
This is an archive assay for CCRIS tumor promotion studies.

OCc1c[nH]c2ccccc12
outcome (Carcinogen: DIETHYLNITROSAMINE, 55-18-5, N-METHYL-N-NITROSOUREA, 684-93-5, DIHYDROXY-DI-N-PROPYLNITROSAMINE, 53069-64-6, Carcinogen: DIETHYLNITROSAMINE, 55-18-5, N-METHYL-N-NITROSOUREA, 684-93-5, DIHYDROXY-DI-N-PROPYLNITROSAMINE, 53069-64-6, Doses [Carcinogen]: 100 MG/KG BW DEN ONCE THEN 20 MG/KG BW MNU ONCE ON DAYS 5, 8, 11, AND 14 FOLLOWED BY 0.1% DHEN IN DRINKING WATER FOR 2 W, Doses [Promoter]: 0, 0.25% IN DIET FOR 20 WK BEGINNING POST CARCINOGEN TREATMENT (STUDY DURATION: 52 WK), Route [Carcinogen]: INTRAPERITONEAL, INTRAPERITONEAL, ORAL, Route [Carcinogen]: INTRAPERITONEAL, INTRAPERITONEAL, ORAL, Route [Promoter]: ORAL, Species: RAT, Strain/Sex: SPRAGUE-DAWLEY/MALE): thyroid gland: follicular cell adenoma or carcinoma
outcome (Carcinogen: DIETHYLNITROSAMINE, 55-18-5, N-METHYL-N-NITROSOUREA, 684-93-5, DIHYDROXY-DI-N-PROPYLNITROSAMINE, 53609-64-6, Carcinogen: DIETHYLNITROSAMINE, 55-18-5, N-METHYL-N-NITROSOUREA, 684-93-5, DIHYDROXY-DI-N-PROPYLNITROSAMINE, 53609-64-6, Doses [Carcinogen]: 100 MG/KG BW DEN ONCE, 20 MG/KG BW MNU 2/WK FOR 2 WK, THEN 0.1% DHPN IN DRINKING WATER FOR 2 WK, Doses [Promoter]: O, 0.25% IN DIET FOR 20 WK BEGINNING POST CARCINOGEN TREATMENT (STUDY DURATION: 52 WK), Route [Carcinogen]: INTRAPERITONEAL, INTRAPERITONEAL, ORAL, Route [Carcinogen]: INTRAPERITONEAL, INTRAPERITONEAL, ORAL, Route [Promoter]: ORAL, Species: RAT, Strain/Sex: SPRAGUE-DAWLEY/MALE): thyroid gland: adenoma and adenocarcinoma
outcome (Doses [Carcinogen]: 0.5 PPM FOR 30 MIN, Doses [Promoter]: 0, 1000 PPM IN DIET BEGINNING 14 WK POST CARCINOGEN DOSE (STUDY DURATION: 12 MO), Route [Carcinogen]: IMMERSION, Route [Promoter]: ORAL, Species: FISH, Strain/Sex: RAINBOW TROUT): liver: tumor
outcome (Doses [Carcinogen]: 12.5 PPB IN WATER FOR 30 MIN, Doses [Promoter]: 0, 2000 PPM IN DIET BEGINNING 4 WK POST CARCINOGEN DOSE AND CONTINUING FOR DURATION OF STUDY (STUDY DURATION: 36 WK), Route [Carcinogen]: IMMERSION, Route [Promoter]: ORAL, Species: FISH, Strain/Sex: RAINBOW TROUT): liver: tumor
outcome (Doses [Carcinogen]: 12.5 PPB IN WATER FOR 30 MIN, Doses [Promoter]: 0, 2000 PPM IN DIET BEGINNING 12 WK POST CARCINOGEN DOSE AND CONTINUING FOR 12 WK FOLLOWED BY CONTROL DIET FOR 12 WK (ST, Route [Carcinogen]: IMMERSION, Route [Promoter]: ORAL, Species: FISH, Strain/Sex: RAINBOW TROUT): liver: tumor
outcome (Doses [Carcinogen]: 12.5 PPB IN WATER FOR 30 MIN, Doses [Promoter]: 0, 2000 PPM IN DIET BEGINNING 12 WK POST CARCINOGEN DOSE AND CONTINUING FOR DURATION OF STUDY (STUDY DURATION: 36 WK), Route [Carcinogen]: IMMERSION, Route [Promoter]: ORAL, Species: FISH, Strain/Sex: RAINBOW TROUT): liver: tumor
outcome (Doses [Carcinogen]: 12.5 PPB IN WATER FOR 30 MIN, Doses [Promoter]: 0, 2000 PPM IN DIET FOR 24 WK BEGINNING POST CARCINOGEN DOSE (STUDY DURATION: 36 WK), Route [Carcinogen]: IMMERSION, Route [Promoter]: ORAL, Species: FISH, Strain/Sex: RAINBOW TROUT): liver: tumor
outcome (Doses [Carcinogen]: 12.5 PPB IN WATER FOR 30 MIN, Doses [Promoter]: 0, 2000 PPM IN DIET FOR 36 WK BEGINNING POST CARCINOGEN DOSE (STUDY DURATION: 36 WK), Route [Carcinogen]: IMMERSION, Route [Promoter]: ORAL, Species: FISH, Strain/Sex: RAINBOW TROUT): liver: tumor
outcome (Doses [Carcinogen]: 50-250 PPM IN WATER FOR 30 MIN, Doses [Promoter]: 0, 500, 750, 1000, 1250 PPM IN DIET BEGINNING 3 MO POST CARCINOGEN TREATMENT (STUDY DURATION: 13 MO), Doses [Promoter]: 0, 500, 750, 1000, 1250 PPM IN DIET BEGINNING 3 MO POST CARCINOGEN TREATMENT (STUDY DURATION: 13 MO), Route [Carcinogen]: IMMERSION, Route [Promoter]: ORAL, Species: FISH, Strain/Sex: RAINBOW TROUT/MALE, FEMALE): liver: tumor
outcome (Doses [Carcinogen]: 50 PPB IN WATER FOR 30 MIN, Doses [Promoter]: 0, 2000 PPM IN DIET BEGINNING POST CARCINOGEN DOSE AND ADMINISTERED 2 D/WK FOR DURATION OF STUDY (STUDY DURATION: 36 WK), Route [Carcinogen]: IMMERSION, Route [Promoter]: ORAL, Species: FISH, Strain/Sex: RAINBOW TROUT): liver: tumor
outcome (Doses [Carcinogen]: 50 PPB IN WATER FOR 30 MIN, Doses [Promoter]: 0, 2000 PPM IN DIET BEGINNING POST CARCINOGEN DOSE AND ADMINISTERED FOR 1 WK ALTERNATING WEEKLY WITH CONTROL DIET (STUDY, Route [Carcinogen]: IMMERSION, Route [Promoter]: ORAL, Species: FISH, Strain/Sex: RAINBOW TROUT): liver: tumor

CC1(C)OC(=O)N(c2cc(Cl)cc(Cl)c2)C1=O
outcome (Carcinogen: 2-(ACETYLAMINO)FLUORINE, Doses [Carcinogen]: DIET, Doses [Promoter]: IN DIET, Route [Carcinogen]: ORAL, Route [Promoter]: ORAL, Species: RAT, Strain/Sex: MALE): liver

C#C[C@]1(O)CC[C@H]2[C@@H]3CCc4cc(O)ccc4[C@H]3CC[C@@]21C
outcome (Carcinogen: 3,2'-DIMETHYL-4-AMINOBIPHENYL, 13394-86-0, Doses [Carcinogen]: 100 MG/KG 1/WK FOR 20 WK, Doses [Promoter]: 0, 0.75 PPM IN DIET FOR DURATION OF STUDY (STUDY DURATION: 50 WK), Route [Carcinogen]: SUBCUTANEOUS, Route [Promoter]: ORAL, Species: HAMSTER, Strain/Sex: SYRIAN/FEMALE): gallbladder: adenoma or adenocarcinoma
outcome (Carcinogen: 3,2'-DIMETHYL-4-AMINOBIPHENYL, 13394-86-0, Doses [Carcinogen]: 100 MG/KG 1/WK FOR 20 WK, Doses [Promoter]: 0, 0.75 PPM IN DIET FOR DURATION OF STUDY (STUDY DURATION: 50 WK), Route [Carcinogen]: SUBCUTANEOUS, Route [Promoter]: ORAL, Species: HAMSTER, Strain/Sex: SYRIAN/MALE): gallbladder: adenoma or adenocarcinoma
outcome (Carcinogen: 7,12-DIMETHYLBENZ[A]ANTHRACENE (DMBA) [57-97-6]AND N-BIS(2-HYROXYPROPYL)NITROSOSAMINE (DHPN) [53609-64-6], Doses [Carcinogen]: DMBA-SINGLE DOSE OF 50 MG/KG BW AT 7 WKS OF AGE, DHPN- 0.2% IN WATER WKS 6-14 OF AGE (STUDY DURATION: 27 WKS FOR MALES;, Doses [Carcinogen]: DMBA-SINGLE DOSE OF 50 MG/KG BW AT 7 WKS OF AGE, DHPN- 0.2% IN WATER WKS 6-14 OF AGE (STUDY DURATION: 27 WKS FOR MALES;, Doses [Promoter]: 0, 0.2, 1% IN DIET (STUDY DURATION: 27 AND 36 WKS FOR MALES AND FEMALES RESPECTIVELY), Doses [Promoter]: 0, 0.2, 1% IN DIET (STUDY DURATION: 27 AND 36 WKS FOR MALES AND FEMALES RESPECTIVELY), Route [Carcinogen]: ORAL (DMBA, GAVAGE; DHPN, DRINKING WATER), Route [Promoter]: MATERNAL MILK TO 3 WKS OF AGE, DIET FROM WKS 3 TO 6 OF AGE, Species: RAT, Strain/Sex: F344/FEMALE, MALE): negative
outcome (Carcinogen: DIETHYLNITROSAMINE, 55-18-5, Doses [Carcinogen]: 100 MG/KG ONCE, Doses [Promoter]: 0, 10 PPM (0.5 MG/KG/D) 2 MO POST CARCINOGEN DOSE AND CONTINUING FOR 8 MO (STUDY DURATION: 12 MO), Route [Carcinogen]: INTRAPERITONEAL, Route [Promoter]: ORAL, Species: RAT, Strain/Sex: CD-1/FEMALE): liver: carcinoma/neoplastic nodules
outcome (Carcinogen: DIETHYLNITROSAMINE, 55-18-5, Doses [Carcinogen]: 100 MG/KG ONCE, Doses [Promoter]: 0, 10 PPM (0.5 MG/KG/D) 2 MO POST CARCINOGEN DOSE AND CONTINUING FOR 8 MO (STUDY DURATION: 12 MO), Route [Carcinogen]: INTRAPERITONEAL, Route [Promoter]: ORAL, Species: RAT, Strain/Sex: CD-1/MALE): liver: carcinoma/neoplastic nodules
outcome (Carcinogen: DIETHYLNITROSAMINE, 55-18-5, Doses [Carcinogen]: 200 MG/KG ONCE, Doses [Promoter]: 0, 160-210 UG/KG BW DAILY FROM RELEASE PELLETS FOR 30 WK BEGINNING 2 WK POST CARCINOGEN DOSE (STUDY DURATION: 30 WK), Route [Carcinogen]: INTRAPERITONEAL, Route [Promoter]: SUBCUTANEOUS, Species: RAT, Strain/Sex: WISTAR/FEMALE): liver: hepatocellular carcinoma
